Experimental data reported in US20020009799A1, “Isolation and purification of nucleic acids” (priority 1999, published 2002).

Key:
E. coli cells = experiment: Lysis of suspended bacterial cells by lysis buffers with 0.1 to 1% SDS; format: cell-based; settings: lysis buffer with 1% OT-100, 0.2M NaOH
Method: 0.25 grams of pelleted E. coli cells (the cells contained an 8.165 kB plasmid called VR1412) were suspended in the suspension buffer from a Concert Plasmid DNA Purification Kit (Life Technologies, Inc., Bethesda, Md.). In place of the lysis buffer provided in the Concert Plasmid DNA Purification Kit (i.e., 1% SDS in 200 mM NaOH), a series of ten different lysis buffers were evaluated. Each lysis buffer included 1% OT-100 (a hydrophobic surfactant), 0.2M NaOH and from 0.1 to 1% SDS. The lysis buffers were used to lyse the suspended bacterial cells, and the lysed suspension was then neutralized with the neutralization buffer provided in the Concert Plasmid DNA Purification Kit. The resulting plasmid DNA preparation was precipitated by the addition of isopropanol (IPA) followed by centrifugation.
The best result was obtained with 1% OT-100 and 0.4% SDS, that combined a relatively low endotoxin (LAL) level and a high plasmid concentration.

[1] = in water; cited from earlier work
[2] = bracketed value; cited from earlier work

## CCCCCCCCCCCCOS(=O)(=O)[O-].[Na+] [SDS, Sodium dodecyl sulfate]
E. coli cells
  minimum concentration of SDS required to achieve most effective bacterial lysis: 0.4%

## CCCCCCCCCCCCCOC(=O)CC(C(=O)OCCCCCCCCCCCCC)S(=O)(=O)O.[Na] (stereo not drawn) [TR-70, sodium bistridecyl sulfosuccinate]
[1]
  Solubility: 0.15%

## Triton ® X-100
[2]
  Dynamic Surface Tension [6 bubbles/sec]: — (42.2) dynes/cm
